Experimental data from ChEMBL document CHEMBL6071200, “Discovery of Ring-Annulated Analogues of Cannabidiol as Potential Anticancer Agents: Synthesis and Biological Evaluation” (ACS Med Chem Lett, 2024).
In brackets after ≈: the same amount, converted by molar mass. Activity calls are given as the source filed them. No cut-off for these calls is given here.

Experiments:
MCF7 [1] = assay: Anticancer activity against human MCF7 cells assessed as effect on cell viability by SRB assay; format: functional, cell-based
HT-29 = assay: Anticancer activity against human HT-29 cells; format: functional, cell-based
[2] = Anticancer activity against mouse NIH3T3 cells; format: toxicity, cell-based
MCF7 [3] = assay: Anticancer activity against human MCF7 cells; format: functional, cell-based
Raji = assay: Anticancer activity against human Raji cells; format: functional, cell-based
Jurkat = assay: Anticancer activity against human Jurkat cells; format: functional, cell-based
SNB-19 = assay: Anticancer activity against human SNB-19 cells; format: functional, cell-based
DU-145 = assay: Anticancer activity against human DU-145 cells; format: functional, cell-based
NCI-H226 = assay: Anticancer activity against human NCI-H226 cells; format: functional, cell-based
HCT-116 [4] = assay: Cytotoxicity against human HCT-116 cells assessed as inhibition of cell growth at 20 uM incubated for 48 hrs by SRB assay relative to control; format: functional
MCF7 [5] = assay: Cytotoxicity against human MCF7 cells assessed as inhibition of cell growth at 20 uM incubated for 48 hrs by SRB assay relative to control; format: functional
[6] = Cytotoxicity against human HEK293 cells assessed as inhibition of cell growth incubated for 48 hrs by SRB assay; format: toxicity, cell-based
MCF7 [7] = assay: Cytotoxicity against human MCF7 cells assessed as inhibition of cell growth incubated for 48 hrs by SRB assay; format: functional, cell-based; settings: MCF7, 48 h
[8] = Selectivity index, ratio of IC50 for HEK293 cells to IC50 for human MCF7 cells; format: toxicity; settings: HEK293 cells versus MCF7 cells, read-out: Ratio IC50
HCT-116 [9] = assay: Cytotoxicity against human HCT-116 cells assessed as inhibition of cell growth incubated for 48 hrs by SRB assay; format: functional, cell-based; settings: HCT-116, 48 h
[10] = Selectivity index, ratio of IC50 for HEK293 cells to IC50 for human HCT-116 cells; format: toxicity; settings: HEK293 cells versus HCT-116 cells, read-out: Ratio IC50
[11] = Metabolic stability in mouse liver microsomes assessed as intrinsic clearance at 5 uM measured upto 30 mins per mg protein in presence of NADPH by LC-MS/MS analysis; format: ADME, Microsome; settings: read-out: CLH
Cytochrome P450 2C19 = Cytochrome P450 2C19 (Homo sapiens, UniProt P33261); assay: Inhibition of CYP2C19 in human liver microsomes using S-mephenytoin substrate at 1 to 10 uM in presence of NADPH by LC-MS/MS analysis; format: ADME, Microsome; settings: dose 1-10 µM
Cytochrome P450 2C19, sequence (P33261 whole entry): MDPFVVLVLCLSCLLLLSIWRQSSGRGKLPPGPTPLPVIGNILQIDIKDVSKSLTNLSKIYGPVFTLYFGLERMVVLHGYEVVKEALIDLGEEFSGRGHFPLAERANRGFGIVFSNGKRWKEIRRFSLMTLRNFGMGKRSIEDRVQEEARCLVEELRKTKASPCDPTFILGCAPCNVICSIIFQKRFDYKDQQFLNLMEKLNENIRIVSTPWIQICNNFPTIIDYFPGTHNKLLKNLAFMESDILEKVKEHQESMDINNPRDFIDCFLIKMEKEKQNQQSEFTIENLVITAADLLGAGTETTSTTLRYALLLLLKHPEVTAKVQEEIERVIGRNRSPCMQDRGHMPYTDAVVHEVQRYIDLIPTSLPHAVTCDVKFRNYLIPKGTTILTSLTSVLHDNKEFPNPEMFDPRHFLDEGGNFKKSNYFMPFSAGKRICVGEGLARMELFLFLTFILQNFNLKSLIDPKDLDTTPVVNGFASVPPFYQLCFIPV

MCF7 [12] = assay: Induction of mitochondrial membrane loss in human MCF7 cells assessed as fold change at 5.3 uM incubated for 24 hrs by Mitotracker dye based flow cytometric analysis relative to control; format: functional
MCF7 [13] = assay: Induction of apoptosis in human MCF7 cells assessed as viable cells at 5.3 uM incubated for 24 hrs by Annexin V-FITC/PI staining based flow cytometric analysis (reference value: 88.20 %); format: functional; settings: read-out: Activity
MCF7 [14] = assay: Anticancer activity against human MCF7 cells assessed as reduction in cell viability at 5.3 uM preincubated with GW9662 for 1 hrs followed by compound addition and measured after 48 hrs by SRB assay; format: functional, cell-based
Cytochrome P450 1A2 = Cytochrome P450 1A2 (Homo sapiens, UniProt P05177); assay: Inhibition of CYP1A2 in human liver microsomes using […] substrate at 1 to 10 uM in presence of NADPH by LC-MS/MS analysis; format: ADME, Microsome; settings: dose 1-10 µM
Cytochrome P450 1A2, sequence (P05177 whole entry): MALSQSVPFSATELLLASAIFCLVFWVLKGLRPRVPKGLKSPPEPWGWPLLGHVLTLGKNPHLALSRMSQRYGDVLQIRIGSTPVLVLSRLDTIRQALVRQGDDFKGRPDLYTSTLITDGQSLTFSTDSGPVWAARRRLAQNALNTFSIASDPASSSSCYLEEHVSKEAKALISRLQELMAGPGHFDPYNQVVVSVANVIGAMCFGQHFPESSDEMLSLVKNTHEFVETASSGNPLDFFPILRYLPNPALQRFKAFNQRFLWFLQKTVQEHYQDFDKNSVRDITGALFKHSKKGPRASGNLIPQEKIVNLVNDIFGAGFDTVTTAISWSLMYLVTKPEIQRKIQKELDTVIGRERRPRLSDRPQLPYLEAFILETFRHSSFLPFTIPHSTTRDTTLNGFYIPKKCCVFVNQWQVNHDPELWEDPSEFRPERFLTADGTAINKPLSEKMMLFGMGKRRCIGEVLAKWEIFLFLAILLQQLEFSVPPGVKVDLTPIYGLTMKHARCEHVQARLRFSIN

[15] = Solubility of compound in SIF by UV absorbance based analysis; format: physicochemical
[16] = Metabolic stability in human liver microsomes assessed as hepatic extraction ratio at 5 uM measured upto 30 mins in presence of NADPH by LC-MS/MS analysis; format: ADME, Microsome; settings: read-out: ERH
[17] = Solubility of compound in water by UV absorbance based analysis; format: physicochemical
MCF7 [18] = assay: Anticancer activity against human MCF7 cells assessed as reduction in cell viability at 5.3 uM preincubated with SR144528 for 1 hrs followed by compound addition and measured after 48 hrs by SRB assay; format: functional, cell-based
[19] = Metabolic stability in mouse liver assessed as intrinsic clearance at 5 uM measured upto 30 mins in presence of NADPH by LC-MS/MS analysis; format: ADME, tissue-based; settings: read-out: CLH
MCF7 [20] = assay: Anticancer activity against human MCF7 cells assessed as reduction in cell viability at 5.3 uM preincubated with LY320135 for 1 hrs followed by compound addition and measured after 48 hrs by SRB assay; format: functional, cell-based
[21] = Solubility of compound in SGF by UV absorbance based analysis; format: physicochemical
MCF7 [22] = assay: Inhibition of colony formation in human MCF7 cells assessed as reduction in number of colonies at subtoxic doses measured after 48 hrs by crystal violet staining based analysis; format: functional, cell-based
MCF7 [23] = assay: Anticancer activity against human MCF7 cells assessed as reduction in cell viability at 5.3 uM preincubated with capsazepine for 1 hrs followed by compound addition and measured after 48 hrs by SRB assay; format: functional, cell-based
[24] = Metabolic stability in human liver assessed as intrinsic clearance at 5 uM measured upto 30 mins in presence of NADPH by LC-MS/MS analysis; format: ADME, tissue-based; settings: read-out: CLH
MCF7 [25] = assay: Cell cycle arrest in human MCF7 cells assessed as accumulation of cells at S phase at 5.3 uM incubated for 24 hrs by PI staining based flow cytometric analysis (reference value: 22.93 %); format: functional
[26] = Metabolic stability in human liver microsomes assessed as half-life at 5 uM measured upto 30 mins in presence of NADPH by LC-MS/MS analysis; format: ADME, Microsome
MCF7 [27] = assay: Induction of ROS production in human MCF7 cells assessed as DCFDA intensity at 5.3 uM incubated for 24 hrs by flow cytometric analysis (reference value: 0.95 %); format: functional
MCF7 [28] = assay: Induction of apoptosis in human MCF7 cells assessed as early apoptotic cells at 5.3 uM incubated for 24 hrs by Annexin V-FITC/PI staining based flow cytometric analysis (reference value: 2.93 %); format: functional
MCF7 [29] = assay: Induction of apoptosis in human MCF7 cells assessed as late apoptotic cells at 5.3 uM incubated for 24 hrs by Annexin V-FITC/PI staining based flow cytometric analysis (reference value: 4.85 %); format: functional
[30] = Metabolic stability in mouse liver microsomes assessed as half-life at 5 uM measured upto 30 mins in presence of NADPH by LC-MS/MS analysis; format: ADME, Microsome
MCF7 [31] = assay: Anticancer activity against human MCF7 cells assessed as reduction in cell viability at 5.3 uM preincubated with ML-193 for 1 hrs followed by compound addition and measured after 48 hrs by SRB assay; format: functional, cell-based
MCF7 [32] = assay: Induction of apoptosis in human MCF7 cells assessed as necrotic cells at 5.3 uM incubated for 24 hrs by Annexin V-FITC/PI staining based flow cytometric analysis (reference value: 4.02 %); format: functional
MCF7 [33] = assay: Anticancer activity against human MCF7 cells assessed as reduction in cell viability at 5.3 uM incubated for 48 hrs by SRB assay relative to control; format: functional
[34] = Metabolic stability in mouse liver microsomes assessed as hepatic extraction ratio at 5 uM measured upto 30 mins in presence of NADPH by LC-MS/MS analysis; format: ADME, Microsome; settings: read-out: ERH
[35] = Permeability of compound at 100 uM incubated for 16 hrs by PAMPA-BBB assay; format: ADME
MCF7 [36] = assay: Cell cycle arrest in human MCF7 cells assessed as accumulation of cells at G2/M phase at 5.3 uM incubated for 24 hrs by PI staining based flow cytometric analysis (reference value: 13.7 %); format: functional
[37] = Metabolic stability in human liver microsomes assessed as intrinsic clearance at 5 uM measured upto 30 mins per mg protein in presence of NADPH by LC-MS/MS analysis; format: ADME, Microsome; settings: read-out: CLH
MCF7 [38] = assay: Cell cycle arrest in human MCF7 cells assessed as accumulation of cells at G1 phase at 5.3 uM incubated for 24 hrs by PI staining based flow cytometric analysis (reference value: 63.9 %); format: functional

Cc1ccc(Cn2nc(C(=O)N[C@@H]3C(C)(C)[C@@H]4CC[C@@]3(C)C4)cc2-c2ccc(Cl)c(C)c2)cc1
Activity (MCF7 [1]): inactive

C=C(C)[C@@H]1CCC(C)=C[C@H]1C1=C(O)C(=O)C(CCCCC)=C(C)C1=O
IC50 (HT-29): 449 nM
IC50 [2]: 449 nM
IC50 (MCF7 [3]): 449 nM
IC50 (Raji): 449 nM
IC50 (Jurkat): 449 nM
IC50 (SNB-19): 449 nM
IC50 (DU-145): 449 nM
IC50 (NCI-H226): 449 nM

COc1ccc(-c2oc3cc(OC)ccc3c2C(=O)c2ccc(C#N)cc2)cc1
Activity (MCF7 [1]): inactive

C=C(C)[C@@H]1CCC(C)=C[C@H]1c1c2c(c(CCCCC)c3c1OCN(CCCC)C3)CN(CCCC)CO2
inhibition at 20 µM (HCT-116 [4]): 0%
inhibition at 20 µM (MCF7 [5]): 0%

C=C(C)[C@@H]1CCC(C)=C[C@H]1c1c(O)cc(CCCCC)c2c1OCN(c1ccc(C(C)C)cc1)C2
inhibition at 20 µM (HCT-116 [4]): 0%
inhibition at 20 µM (MCF7 [5]): 9.47%

C=C(C)[C@@H]1CCC(C)=C[C@H]1c1c(O)cc(CCCCC)c2c1OCN(CCCCCC)C2
IC50 at 48 h [6]: 23500 nM
inhibition at 20 µM (HCT-116 [4]): 70.9%
inhibition at 20 µM (MCF7 [5]): 83%
IC50 (MCF7 [7]): 9500 nM
selectivity ratio [8]: 2.4
IC50 (HCT-116 [9]): 19800 nM
selectivity ratio [10]: 1.1

C=C(C)[C@@H]1CCC(C)=C[C@H]1c1c(O)cc(CCCCC)c2c1OCN(CCCC)C2
IC50 at 48 h [6]: 37100 nM
microsomal CLint at 5 µM [11]: 46 µL/min/mg
inhibition at 20 µM (HCT-116 [4]): 82.6%
inhibition (INH) (Cytochrome P450 2C19): Active
fold change (FC) (MCF7 [12]): 4.3
viability at 5.3 µM (MCF7 [13]): 66.1%
Activity (MCF7 [14]): Active
inhibition at 20 µM (MCF7 [5]): 85.3%
inhibition (INH) (Cytochrome P450 1A2): Active
solubility [15]: 80 µg/mL (≈ 194 µM)
hepatic extraction ratio at 0.5 h, 5 µM [16]: 0.71
IC50 (MCF7 [7]): 5300 nM
solubility [17]: 80 µg/mL (≈ 194 µM)
Activity (MCF7 [18]): Active
CLint scaled at 5 µM [19]: 182 mL/min/kg
Activity (MCF7 [20]): Active
selectivity ratio [8]: 7
solubility [21]: > 1500 µg/mL
inhibition (MCF7 [22]): Active
Activity (MCF7 [23]): Active
CLint scaled at 5 µM [24]: 51 mL/min/kg
Activity (MCF7 [25]): 15.48%
half-life at 5 µM [26]: 32 min
Activity (MCF7 [27]): 12.05%
Activity (MCF7 [28]): 8.93%
Activity (MCF7 [29]): 15.07%
half-life at 5 µM [30]: 31 min
Activity (MCF7 [31]): Active
IC50 (HCT-116 [9]): 4200 nM
Activity (MCF7 [32]): 9.86%
Activity (MCF7 [33]): 46.45%
hepatic extraction ratio at 0.5 h, 5 µM [34]: 0.67
permeability [35]: Permeable
Activity (MCF7 [36]): 8.8%
selectivity ratio [10]: 8.8
microsomal CLint at 5 µM [37]: 44 µL/min/mg
Activity (MCF7 [38]): 75.72%

C=C(C)[C@@H]1CCC(C)=C[C@H]1c1c(O)cc(CCCCC)c2c1OCN(C)C2
IC50 at 48 h [6]: 12400 nM
inhibition at 20 µM (HCT-116 [4]): 56.3%
inhibition at 20 µM (MCF7 [5]): 85.3%
IC50 (MCF7 [7]): 7700 nM
selectivity ratio [8]: 1.6
IC50 (HCT-116 [9]): 11700 nM
selectivity ratio [10]: 1.1

O=C(/C=C/C=C/c1ccc2c(c1)OCO2)N1CCCCC1 [PIPERINE]
solubility [15]: 60 µg/mL (≈ 210 µM)
solubility [17]: 40 µg/mL (≈ 140 µM)
solubility [21]: 40 µg/mL (≈ 140 µM)

C=C(C)[C@@H]1CCC(C)=C[C@H]1c1c(O)cc(CCCCC)c2c1OCN(CCCN1CCOCC1)C2
IC50 at 48 h [6]: 10600 nM
inhibition at 20 µM (HCT-116 [4]): 58.5%
inhibition at 20 µM (MCF7 [5]): 76.8%
IC50 (MCF7 [7]): 8800 nM
selectivity ratio [8]: 1.2
IC50 (HCT-116 [9]): 12100 nM
selectivity ratio [10]: 0.8

C=C(C)[C@@H]1CCC(C)=C[C@H]1c1c(O)cc(CCCCC)c2c1OCN(c1ccccc1F)C2
inhibition at 20 µM (HCT-116 [4]): 1.13%
inhibition at 20 µM (MCF7 [5]): 16.6%

C=C(C)[C@@H]1CCC(C)=C[C@H]1C1=C(OC)C(=O)C(CCCCC)=CC1=O
IC50 (HT-29): 449 nM
IC50 [2]: 449 nM
IC50 (MCF7 [3]): 449 nM
IC50 (Raji): 449 nM
IC50 (Jurkat): 449 nM
IC50 (SNB-19): 449 nM
IC50 (DU-145): 449 nM
IC50 (NCI-H226): 449 nM
